Assays:
Assay type in all cases: functional
[1] = target: T1, Putative uncharacterized protein pk7 (Plasmodium falciparum, UniProt O96214); assay: Final concentrations were 1 uM ATP, 2 mM DTT, 20 mM MgCl2, 2 mM MnCl2, 0.01% BSA, and 6 ug/ml PK7, in a buffer of 20 mM Tris-HCl (pH 7.5). The enzyme itself was the only substrate present (since autophosphorylation occurs); 100 uM 1NA-PP1 was used as a control inhibitor. Incubation time was 3 hours.
T1 sequence (O96214 whole entry): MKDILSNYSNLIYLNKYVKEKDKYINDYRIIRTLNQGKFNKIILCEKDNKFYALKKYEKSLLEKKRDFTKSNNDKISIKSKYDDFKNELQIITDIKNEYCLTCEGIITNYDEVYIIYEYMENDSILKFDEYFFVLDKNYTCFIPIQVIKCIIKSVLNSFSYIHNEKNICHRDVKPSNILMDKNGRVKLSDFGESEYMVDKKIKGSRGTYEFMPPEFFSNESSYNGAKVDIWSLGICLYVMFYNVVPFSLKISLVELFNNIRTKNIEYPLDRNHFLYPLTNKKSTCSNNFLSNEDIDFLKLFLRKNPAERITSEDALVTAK

[2] = target: T2, Cdk-related protein kinase 6 (Plasmodium falciparum, UniProt O77239); assay: Final concentrations were 1.5 uM ATP, 5 mM MnCl2, and 15 ug/ml PK6 in a buffer of 100 mM Tris-HCl (pH 7.5). 50 ug/mL MBP was provided as the substrate; 10 uM staurosporine was used as a control inhibitor. Incubation time was 3 hours and 40 minutes.The catalytic activity of each kinase was considered proportional to ATP consumed, as determined from measurements of residual [ATP] with the luciferase-based reagent Kinase-Glo (Promega) following incubation. Luminescence (proportional to residual [ATP]) was measured on the plate readers FLx800 (BioTek Instruments, Winooski, VT, USA) and MicroBeta2.
T2 sequence (O77239 whole entry): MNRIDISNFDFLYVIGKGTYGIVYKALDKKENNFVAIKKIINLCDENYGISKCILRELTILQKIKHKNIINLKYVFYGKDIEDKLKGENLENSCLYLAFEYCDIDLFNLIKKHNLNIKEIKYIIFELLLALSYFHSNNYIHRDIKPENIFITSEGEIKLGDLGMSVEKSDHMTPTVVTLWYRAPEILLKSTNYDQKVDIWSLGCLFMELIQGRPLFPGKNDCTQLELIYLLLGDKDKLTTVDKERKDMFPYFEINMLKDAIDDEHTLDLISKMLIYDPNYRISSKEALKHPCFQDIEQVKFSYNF

[3] = target: T3, Proline--tRNA ligase (Plasmodium falciparum (isolate 3D7), UniProt Q8I5R7); assay: MMV: ProRS recombinant Plasmodium falciparum Prolyl-tRNA-synthetase, assay with yeast tRNA, ATP, and proline and 3 uM MMV malaria box compound, assay read out with kinase glo as % inhibition.
T3 sequence (Q8I5R7 whole entry): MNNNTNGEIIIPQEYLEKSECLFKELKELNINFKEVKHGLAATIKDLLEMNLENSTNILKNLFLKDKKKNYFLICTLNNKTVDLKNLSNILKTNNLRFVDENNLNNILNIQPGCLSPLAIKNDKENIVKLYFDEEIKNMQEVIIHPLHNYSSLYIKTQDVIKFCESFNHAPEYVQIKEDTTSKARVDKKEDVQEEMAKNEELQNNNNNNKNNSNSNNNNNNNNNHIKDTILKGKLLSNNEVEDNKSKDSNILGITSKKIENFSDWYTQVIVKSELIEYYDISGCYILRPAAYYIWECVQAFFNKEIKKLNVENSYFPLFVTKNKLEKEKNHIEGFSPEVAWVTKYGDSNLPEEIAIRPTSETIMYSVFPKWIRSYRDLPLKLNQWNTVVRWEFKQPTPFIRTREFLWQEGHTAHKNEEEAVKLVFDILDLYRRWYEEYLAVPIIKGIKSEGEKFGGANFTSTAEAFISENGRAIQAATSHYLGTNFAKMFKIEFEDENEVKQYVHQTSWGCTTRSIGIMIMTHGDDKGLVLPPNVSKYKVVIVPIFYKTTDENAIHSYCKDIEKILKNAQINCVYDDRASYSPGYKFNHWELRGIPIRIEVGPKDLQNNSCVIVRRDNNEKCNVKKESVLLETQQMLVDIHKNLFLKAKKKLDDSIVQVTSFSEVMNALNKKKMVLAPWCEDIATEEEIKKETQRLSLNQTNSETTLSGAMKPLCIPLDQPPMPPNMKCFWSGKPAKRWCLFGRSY

[4] = target: Lysine--tRNA ligase (Plasmodium falciparum (isolate 3D7), UniProt Q8IDJ8); assay: MMV: KRS recombinant Plasmodium falciparum Lysyl-tRNA-synthetase, assay with yeast tRNA, ATP, and lysine and 3 uM MMV malaria box compound, assay read out with kinase glo as % inhibition.
[5] = target: Calcium-dependent protein kinase 1 (Plasmodium falciparum, UniProt P62344); assay: MMV: CDPK1 Protein kinase inhibition assay using recombinant PfCDPK1, syntide 2 peptide substrate, ATP and KinaseGlo to measure % inhibition at 1 uM MMV box compound.
[6] = target: T4, Calcium-dependent protein kinase 4 (Plasmodium falciparum (isolate 3D7), UniProt Q8IBS5); assay: MMV: CDPK4 Protein kinase inhibition assay using recombinant PfCDPK4, syntide2 peptide substrate, ATP and KinaseGlo to measure % inhibition at 1 uM MMV box compound.
T4 sequence (Q8IBS5 whole entry): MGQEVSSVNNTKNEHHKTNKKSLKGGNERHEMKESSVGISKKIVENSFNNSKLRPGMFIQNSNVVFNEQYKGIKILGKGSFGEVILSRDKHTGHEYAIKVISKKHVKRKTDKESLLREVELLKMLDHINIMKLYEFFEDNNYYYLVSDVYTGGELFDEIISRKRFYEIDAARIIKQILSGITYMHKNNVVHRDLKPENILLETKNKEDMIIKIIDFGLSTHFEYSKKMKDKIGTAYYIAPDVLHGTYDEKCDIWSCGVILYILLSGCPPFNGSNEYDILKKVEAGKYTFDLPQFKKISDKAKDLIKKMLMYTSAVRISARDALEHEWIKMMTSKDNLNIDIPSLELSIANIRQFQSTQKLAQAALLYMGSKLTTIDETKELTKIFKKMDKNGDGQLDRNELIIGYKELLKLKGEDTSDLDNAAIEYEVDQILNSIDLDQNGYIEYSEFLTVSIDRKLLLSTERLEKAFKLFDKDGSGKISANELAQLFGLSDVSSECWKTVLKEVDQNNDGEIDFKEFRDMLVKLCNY

[7] = target: T5, Mitogen-activated protein kinase (Plasmodium falciparum, UniProt Q25917); assay: Final concentrations were 1 uM ATP, 0.5 mM DTT, 1 mM MgCl2, 0.5 mg/mL BSA, and 10 ug/ml MAP2 in a buffer of 50 mM HEPES (pH 7.0). 0.5 mg/mL histone III-S served as the substrate (13); 100 uM AMP-PNP, an ATP analog, was used as a control inhibitor. Incubation time was 4 hours.
T5 sequence (Q25917 whole entry): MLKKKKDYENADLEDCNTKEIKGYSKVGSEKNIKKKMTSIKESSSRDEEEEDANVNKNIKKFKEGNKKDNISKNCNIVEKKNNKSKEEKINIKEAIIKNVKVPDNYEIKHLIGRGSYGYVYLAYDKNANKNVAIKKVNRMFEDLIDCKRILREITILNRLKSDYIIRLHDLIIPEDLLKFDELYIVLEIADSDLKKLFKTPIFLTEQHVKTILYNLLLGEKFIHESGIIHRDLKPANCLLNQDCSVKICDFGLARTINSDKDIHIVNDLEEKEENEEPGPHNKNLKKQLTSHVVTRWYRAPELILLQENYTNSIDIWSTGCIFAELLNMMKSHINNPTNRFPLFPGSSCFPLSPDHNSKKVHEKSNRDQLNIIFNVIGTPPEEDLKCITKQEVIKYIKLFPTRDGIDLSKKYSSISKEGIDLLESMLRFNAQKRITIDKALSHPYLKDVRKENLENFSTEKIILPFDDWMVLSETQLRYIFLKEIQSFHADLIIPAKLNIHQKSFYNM

Sequence of Calcium-dependent protein kinase 1 (P62344 whole entry): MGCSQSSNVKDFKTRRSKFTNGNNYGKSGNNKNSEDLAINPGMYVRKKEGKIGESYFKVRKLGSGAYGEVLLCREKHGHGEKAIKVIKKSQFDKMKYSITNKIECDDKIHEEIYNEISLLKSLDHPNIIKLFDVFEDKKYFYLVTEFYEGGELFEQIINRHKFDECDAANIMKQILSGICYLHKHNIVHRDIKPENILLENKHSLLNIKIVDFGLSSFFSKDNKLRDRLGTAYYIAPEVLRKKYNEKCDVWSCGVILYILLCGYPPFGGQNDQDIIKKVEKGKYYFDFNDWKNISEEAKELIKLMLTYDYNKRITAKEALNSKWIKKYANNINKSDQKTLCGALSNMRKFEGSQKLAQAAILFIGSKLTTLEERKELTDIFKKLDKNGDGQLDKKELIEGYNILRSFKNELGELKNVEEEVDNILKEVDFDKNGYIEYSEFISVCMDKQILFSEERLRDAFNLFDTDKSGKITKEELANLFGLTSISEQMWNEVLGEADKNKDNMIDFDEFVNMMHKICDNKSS
Sequence of Lysine--tRNA ligase (Q8IDJ8 whole entry): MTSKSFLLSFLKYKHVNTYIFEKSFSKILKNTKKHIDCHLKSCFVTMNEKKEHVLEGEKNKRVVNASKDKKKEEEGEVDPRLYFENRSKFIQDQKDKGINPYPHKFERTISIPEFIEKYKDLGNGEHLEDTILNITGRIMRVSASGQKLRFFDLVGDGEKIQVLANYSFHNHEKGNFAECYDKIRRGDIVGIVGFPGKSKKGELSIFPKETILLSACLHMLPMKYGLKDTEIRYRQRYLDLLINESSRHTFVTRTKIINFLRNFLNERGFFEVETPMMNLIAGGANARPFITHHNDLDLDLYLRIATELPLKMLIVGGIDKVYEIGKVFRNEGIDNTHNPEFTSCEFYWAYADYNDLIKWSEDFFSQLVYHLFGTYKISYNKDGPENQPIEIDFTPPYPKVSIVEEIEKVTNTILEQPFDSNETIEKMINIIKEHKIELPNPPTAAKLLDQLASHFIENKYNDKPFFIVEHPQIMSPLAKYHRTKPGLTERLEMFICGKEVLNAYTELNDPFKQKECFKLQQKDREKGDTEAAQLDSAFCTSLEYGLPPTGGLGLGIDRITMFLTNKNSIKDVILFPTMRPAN

Structure (SMILES)	IC50 [1]	IC50 [2]	IC50 [3]	IC50 [4]	IC50 [5]	IC50 [6]	IC50 [7]
CCOc1c(Cl)cc(CNCC(O)c2ccccc2)cc1OC (centres undefined)	> 1000 nM	> 1000 nM	> 2500 nM	> 2500 nM	> 1000 nM	> 1000 nM	> 1000 nM
OC(CNCC1CCCO1)Cn1c2ccc(Cl)cc2c2cc(Cl)ccc21 (centres undefined)	> 1000 nM	> 1000 nM	> 2500 nM	> 2500 nM	> 1000 nM	> 1000 nM	> 1000 nM
COc1ccc2nc(C)cc(Nc3ccccc3O)c2c1	> 1000 nM	> 1000 nM	> 2500 nM	> 2500 nM	> 1000 nM	> 1000 nM	> 1000 nM
CCn1nc(-c2ccc(C(=O)OC)cc2)nc2c(=O)n(C)c(=O)nc1-2	> 1000 nM	> 1000 nM	> 2500 nM	> 2500 nM	> 1000 nM	> 1000 nM	> 1000 nM
CC1(c2ccccc2)Nc2ccccc2-c2nc3ccccc3n21 (centres undefined)	> 1000 nM	> 1000 nM	> 2500 nM	> 2500 nM	> 1000 nM	> 1000 nM	> 1000 nM
CC(C)(C)CC(C)(C)NCC(O)COc1ccc(Cl)cc1Cl (centres undefined)	> 1000 nM	> 1000 nM	> 2500 nM	> 2500 nM	> 1000 nM	> 1000 nM	> 1000 nM
O=C(Nc1ccc(Br)cc1)Nc1cccc(Cl)c1	> 1000 nM	> 1000 nM	> 2500 nM	> 2500 nM	> 1000 nM	> 1000 nM	> 1000 nM
CCC(O)c1ccc(Br)cc1NC(=O)c1cccc(Cl)c1 (centres undefined)	> 1000 nM	> 1000 nM	> 2500 nM	> 2500 nM	> 1000 nM	> 1000 nM	> 1000 nM
Cc1cc(Nc2cccc(F)c2)nc(NCc2ccccc2)n1	> 1000 nM	> 1000 nM	> 2500 nM	> 2500 nM	> 1000 nM	> 1000 nM	> 1000 nM
COCCn1c(C)nc2ccccc2c1=O	> 1000 nM	> 1000 nM	> 2500 nM	> 2500 nM	> 1000 nM	> 1000 nM	> 1000 nM
O=C(Nc1cccc(-c2nc3ccccc3[nH]2)c1)c1cccc(NC(=O)c2ccco2)c1	> 1000 nM	> 1000 nM	> 2500 nM	> 2500 nM	> 1000 nM	> 1000 nM	> 1000 nM
O=C(NC1CCN(Cc2ccccc2)CC1)c1cc(-c2cccnc2)nc2ccc(Cl)cc12	> 1000 nM	> 1000 nM	> 2500 nM	> 2500 nM	> 1000 nM	> 1000 nM	> 1000 nM
COc1ccc(-c2nonc2NC(=O)c2cccc(Cl)c2)cc1OC	> 1000 nM	> 1000 nM	> 2500 nM	> 2500 nM	> 1000 nM	> 1000 nM	> 1000 nM
Cc1cc(NC(=O)c2ccc(-c3ccccc3)cc2)no1	> 1000 nM	> 1000 nM	> 2500 nM	> 2500 nM	> 1000 nM	> 1000 nM	> 1000 nM
O=C1CC(O)(C(F)(F)C(F)(F)F)Oc2ccccc21 (centres undefined)	> 1000 nM	> 1000 nM	> 2500 nM	> 2500 nM	> 1000 nM	> 1000 nM	> 1000 nM
COc1cc(SC)ccc1C(=O)N1CCCC(C)C1 (centres undefined)	> 1000 nM	> 1000 nM	> 2500 nM	> 2500 nM	> 1000 nM	> 1000 nM	> 1000 nM
Cc1ccc(NC(=O)Nc2cccc(Cl)c2)cc1F	> 1000 nM	> 1000 nM	> 2500 nM	> 2500 nM	> 1000 nM	> 1000 nM	> 1000 nM
O=c1nc(C=Cc2ccc(Cl)cc2)oc2ccccc12	> 1000 nM	> 1000 nM	> 2500 nM	> 2500 nM	> 1000 nM	> 1000 nM	> 1000 nM
O=C(NCc1ccco1)C1CCN(S(=O)(=O)c2ccc(Br)cc2)CC1	> 1000 nM	> 1000 nM	> 2500 nM	> 2500 nM	> 1000 nM	> 1000 nM	> 1000 nM
COc1ccc(Nc2nc(NCc3ccccc3)c3ccccc3n2)cc1	> 1000 nM	> 1000 nM	> 2500 nM	> 2500 nM	> 1000 nM	> 1000 nM	> 1000 nM
COc1cc2c(cc1OC)C1=NNC(=O)C1=NC(C)(C)C2	> 1000 nM	> 1000 nM	> 2500 nM	> 2500 nM	> 1000 nM	> 1000 nM	> 1000 nM
CCOc1ccc(CCNC(=O)c2cccs2)cc1OCC	> 1000 nM	> 1000 nM	> 2500 nM	> 2500 nM	> 1000 nM	> 1000 nM	> 1000 nM

Reference: ChEMBL document CHEMBL3301562, “MMV Box screening against Plasmodium falciparum protein kinases and aminoacyl tRNA synthetases”
